Drawing on ChEMBL document CHEMBL1124269, “1,3-Diamino-6,7-dimethoxyisoquinoline derivatives as potential alpha 1-adrenoceptor antagonists” (J Med Chem, 1988), this text covers Ki, Reduction and pKa for 6 compounds.

Experiment [1] deals with T1, Adrenergic receptor alpha-1 (Rattus norvegicus, UniProt P15823+P23944+P43140).
T1 sequence (P15823 whole entry): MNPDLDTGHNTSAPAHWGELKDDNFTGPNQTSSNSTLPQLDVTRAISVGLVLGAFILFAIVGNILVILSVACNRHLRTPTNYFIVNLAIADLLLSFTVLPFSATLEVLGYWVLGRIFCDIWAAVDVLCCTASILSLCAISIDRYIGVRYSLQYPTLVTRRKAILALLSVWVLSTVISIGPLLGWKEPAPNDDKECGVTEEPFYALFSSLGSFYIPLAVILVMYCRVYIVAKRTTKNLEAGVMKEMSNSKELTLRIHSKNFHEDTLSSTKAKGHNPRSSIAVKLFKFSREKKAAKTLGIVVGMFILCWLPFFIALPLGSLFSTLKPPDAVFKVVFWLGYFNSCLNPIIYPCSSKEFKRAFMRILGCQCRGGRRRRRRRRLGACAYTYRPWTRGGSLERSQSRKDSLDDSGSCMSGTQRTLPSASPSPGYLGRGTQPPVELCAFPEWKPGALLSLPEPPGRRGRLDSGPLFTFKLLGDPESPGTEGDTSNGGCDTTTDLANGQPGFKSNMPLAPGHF
T1 sequence (P23944 whole entry): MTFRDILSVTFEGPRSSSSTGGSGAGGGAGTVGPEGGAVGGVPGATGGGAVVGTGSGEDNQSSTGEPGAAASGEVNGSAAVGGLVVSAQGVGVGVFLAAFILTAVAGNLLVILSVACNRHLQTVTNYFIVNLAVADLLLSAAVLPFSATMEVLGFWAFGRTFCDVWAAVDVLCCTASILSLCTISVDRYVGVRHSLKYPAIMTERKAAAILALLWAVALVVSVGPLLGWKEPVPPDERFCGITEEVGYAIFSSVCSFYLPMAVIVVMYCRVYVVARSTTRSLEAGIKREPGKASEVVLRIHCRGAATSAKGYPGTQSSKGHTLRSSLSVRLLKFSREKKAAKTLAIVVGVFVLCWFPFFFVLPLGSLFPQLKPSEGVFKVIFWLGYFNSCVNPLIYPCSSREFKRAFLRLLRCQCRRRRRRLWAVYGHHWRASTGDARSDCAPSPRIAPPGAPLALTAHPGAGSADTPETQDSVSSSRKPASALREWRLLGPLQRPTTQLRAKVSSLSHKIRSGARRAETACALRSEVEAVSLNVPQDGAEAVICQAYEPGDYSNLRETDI
T1 sequence (P43140 whole entry): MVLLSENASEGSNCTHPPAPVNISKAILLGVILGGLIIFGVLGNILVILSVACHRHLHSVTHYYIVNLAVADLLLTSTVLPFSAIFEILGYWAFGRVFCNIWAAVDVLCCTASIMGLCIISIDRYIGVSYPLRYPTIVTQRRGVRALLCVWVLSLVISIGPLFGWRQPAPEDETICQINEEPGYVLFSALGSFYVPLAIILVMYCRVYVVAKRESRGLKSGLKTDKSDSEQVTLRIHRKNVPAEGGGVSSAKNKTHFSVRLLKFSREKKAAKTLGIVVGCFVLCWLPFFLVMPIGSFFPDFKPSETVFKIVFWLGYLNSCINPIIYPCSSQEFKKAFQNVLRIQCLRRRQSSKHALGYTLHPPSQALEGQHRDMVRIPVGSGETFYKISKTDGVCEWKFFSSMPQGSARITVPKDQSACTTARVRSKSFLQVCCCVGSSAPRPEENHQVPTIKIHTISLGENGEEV
Kind of experiment: Binding affinity to Alpha-1 adrenergic receptor by displacement of [3H]prazosin. The experiment is classed as protein assay. In general terms: Loss of bound radioactivity is the signal in a displacement assay; it reports binding, not function.

Experiment [2] has as its system Rattus norvegicus. Kind of experiment: Percent reduction of SHR (Spontaneous Hypertensive Rat) blood pressure at 1 hr at a dose 10 mg/kg peroral administration. The experiment is classed as functional. The following applies: route oral.
Experiment [3] deals with Rattus norvegicus. Nature of the experiment: Percent reduction of SHR (Spontaneous Hypertensive Rat) blood pressure at 4.5 hr at a dose 10 mg/kg peroral administration. The note with it: route oral. The experiment is classed as functional.
Experiment [4] concerns the target T2, Adrenergic receptor alpha-2 (Rattus norvegicus, UniProt P22086+P19328+P22909).
T2 sequence (P22086 whole entry): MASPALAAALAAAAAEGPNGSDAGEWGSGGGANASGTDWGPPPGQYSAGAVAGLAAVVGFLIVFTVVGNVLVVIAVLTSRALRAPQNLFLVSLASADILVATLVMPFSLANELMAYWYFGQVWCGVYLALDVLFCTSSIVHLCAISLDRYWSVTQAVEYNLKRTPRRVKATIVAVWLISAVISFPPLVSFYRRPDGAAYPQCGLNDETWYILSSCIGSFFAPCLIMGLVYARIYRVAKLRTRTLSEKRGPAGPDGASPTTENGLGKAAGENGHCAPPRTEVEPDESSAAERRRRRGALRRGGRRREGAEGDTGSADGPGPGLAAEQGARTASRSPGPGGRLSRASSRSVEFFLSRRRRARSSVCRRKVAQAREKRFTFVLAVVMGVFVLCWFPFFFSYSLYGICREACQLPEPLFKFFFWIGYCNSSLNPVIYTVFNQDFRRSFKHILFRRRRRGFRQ
T2 sequence (P19328 whole entry): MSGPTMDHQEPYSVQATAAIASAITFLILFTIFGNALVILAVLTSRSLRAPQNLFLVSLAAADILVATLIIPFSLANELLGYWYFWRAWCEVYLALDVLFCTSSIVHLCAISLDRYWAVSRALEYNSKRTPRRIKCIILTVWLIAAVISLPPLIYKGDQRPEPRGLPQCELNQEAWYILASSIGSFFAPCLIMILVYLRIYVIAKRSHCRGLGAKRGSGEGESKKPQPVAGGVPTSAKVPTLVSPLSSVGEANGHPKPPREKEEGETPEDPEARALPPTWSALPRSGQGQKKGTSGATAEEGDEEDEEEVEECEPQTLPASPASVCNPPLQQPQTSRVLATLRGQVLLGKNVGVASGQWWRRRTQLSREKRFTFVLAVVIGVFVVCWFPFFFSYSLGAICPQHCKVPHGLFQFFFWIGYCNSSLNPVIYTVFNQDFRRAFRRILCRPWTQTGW
T2 sequence (P22909 whole entry): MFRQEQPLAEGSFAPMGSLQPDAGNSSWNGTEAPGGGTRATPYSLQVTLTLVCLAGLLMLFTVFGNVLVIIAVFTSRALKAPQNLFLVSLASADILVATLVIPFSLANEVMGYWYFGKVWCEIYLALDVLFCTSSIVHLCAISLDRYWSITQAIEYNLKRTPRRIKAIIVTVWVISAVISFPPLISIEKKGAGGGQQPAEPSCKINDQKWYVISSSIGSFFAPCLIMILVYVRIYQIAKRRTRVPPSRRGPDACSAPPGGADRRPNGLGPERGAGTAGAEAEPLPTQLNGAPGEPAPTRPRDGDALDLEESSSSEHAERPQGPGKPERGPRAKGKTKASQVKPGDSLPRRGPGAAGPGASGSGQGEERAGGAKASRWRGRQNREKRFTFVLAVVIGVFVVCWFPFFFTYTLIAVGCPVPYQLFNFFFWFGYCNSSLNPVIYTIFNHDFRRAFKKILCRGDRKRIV
Kind of experiment: Binding affinity to alpha-2 adrenergic receptor by displacement of [3H]clonidine. The experiment is classed as protein assay.

Experiment [5] is described as follows: Ionization constant of the compound.
Experiment [6] relates to Rattus norvegicus. Kind of experiment: Percent reduction of SHR (Spontaneous Hypertensive Rat) blood pressure at 4.5 hr at a dose 3 mg/kg peroral administration. The following applies: route oral.
The test system of experiment [7] is Rattus norvegicus. Kind of experiment: Percent reduction of SHR (Spontaneous Hypertensive Rat) blood pressure at 1 hr at a dose 3 mg/kg peroral administration. The note with it: route oral.
Experiment [8] has as its system Rattus norvegicus. Kind of experiment: Percent reduction of SHR (Spontaneous Hypertensive Rat) blood pressure at 4.5 hr at a dose 3 mg/kg peroral administration. Type of experiment: functional. The note with it: route oral.
In experiment [9] the test system is Rattus norvegicus. Nature of the experiment: Percent reduction of SHR (Spontaneous Hypertensive Rat) blood pressure at 1 hr at a dose 3 mg/kg peroral administration. Type of experiment: functional. The note with it: route oral.

On to `COc1cc2cc(N3CCCCC3)nc(N)c2cc1OC`, for which the Ki in [1] and in [4] was >> 1 uM in each case. The Reduction was found to be 15% in the experiment with Rattus norvegicus [2] and 11% in the experiment on Rattus norvegicus [3].

Regarding `COc1cc2nc(N(C)C)cc(N)c2cc1OC`, the inhibitory constant (Ki) in experiment [1] (read-out: Ki) was 11.4 nM; in experiment [4] it was more than 1000 nM. In experiment [5], this compound showed a pKa of 9.3. For the same compound, the results for the Reduction with Rattus norvegicus [6] and in the experiment with Rattus norvegicus [7] were 11% and 12%, respectively.

As to `COc1cc2cc(N3CCN(C(=O)c4ccco4)CC3)nc(N)c2cc1OC`, in experiment [1] (read-out: Ki), the Ki is reported as 160 nM. Further, the Reduction in the experiment with Rattus norvegicus [2] came out at 4%; in the experiment with Rattus norvegicus [3], 6%.

With `COc1cc2nc(N3CCN(C(=O)c4ccco4)CC3)nc(N)c2cc1OC` [PRAZOSIN], the figures for the Reduction in the experiment with Rattus norvegicus [8] and in the experiment on Rattus norvegicus [9] were 15% and 24%, respectively. The same compound displayed a pKa in experiment [5] of 6.8.

For `COc1cc2nc(N(C)C)nc(N)c2cc1OC`, the inhibition constant (Ki) was 4.1 nM in experiment [1] (read-out: Ki) and more than 1000 nM in experiment [4]. For the same compound, the pKa in experiment [5] was 8.1.

Take `COc1cc2cc(N(C)C)nc(N)c2cc1OC`: the Ki in experiment [1] and in experiment [4] was >> 1 uM in each case. For the same compound, the Reduction in the experiment on Rattus norvegicus [2] was determined as 12%; in the experiment on Rattus norvegicus [3], 10%. Moreover, the pKa in experiment [5] came out at 7.1.

The Ki is a measure of affinity in units of concentration, obtained from inhibition or displacement.
